Data on 15 compounds can be found in patent US20240327389A1, “LACTONE AND LACTAM CONTAINING COMPOUNDS USEFUL AS IMMUNOMODULATORS” (BRISTOL-MYERS SQUIBB COMPANY, priority 2021, published 2024).

Some results are limits rather than exact numbers.

Sequence of PD-1/PD-L1 interaction (PD-1-Ig / PD-L1-His) (Q9NZQ7 18-239): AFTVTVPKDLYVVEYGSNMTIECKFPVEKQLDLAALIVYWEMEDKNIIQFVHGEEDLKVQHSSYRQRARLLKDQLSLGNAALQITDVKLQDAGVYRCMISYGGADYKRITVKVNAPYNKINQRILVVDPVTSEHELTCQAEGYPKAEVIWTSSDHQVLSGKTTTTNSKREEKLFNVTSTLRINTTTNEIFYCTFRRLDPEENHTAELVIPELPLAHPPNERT

The target of the assay is PD-1/PD-L1 interaction (PD-1-Ig / PD-L1-His) (Homo sapiens (Human), UniProt Q9NZQ7). As to the kind of experiment: PD-1/PD-L1 Homogenous Time-Resolved Fluorescence (HTRF) binding assay. The note with it: PD-L1-His 10 nM final, PD-1-Ig 20 nM final. The source says:
The ability of the compounds of the invention to bind to PD-L1 was investigated using a PD-1/PD-L1 Homogenous Time-Resolved Fluorescence (HTRF) binding assay.
The interaction of PD-1 and PD-L1 can be assessed using soluble, purified preparations of the extracellular domains of the two proteins. The PD-1 and PD-L1 protein extracellular domains were expressed as fusion proteins with detection tags, for PD-1, the tag was the Fc portion of Immunoglobulin (PD-1-Ig) and for PD-L1 it was the 6 histidine motif (PD-L1-His). All binding studies were performed in an HTRF assay buffer consisting of dPBS supplemented with 0.1% […] bovine serum albumin and 0.05% (v/v) Tween-20. For the h/PD-L1-His binding assay, inhibitors were pre-incubated with PD-L1-His (10 nM final) for 15 m in 4 μl of assay buffer, followed by addition of PD-1-Ig (20 nM final) in 1 μl of assay buffer and further incubation for 15 m. HTRF detection was achieved using europium crypate-labeled anti-Ig (1 nM final) and allophycocyanin (APC) labeled anti-His (20 nM final). Antibodies were diluted in HTRF detection buffer and 5 μl was dispensed on top of the binding reaction. The reaction mixture was allowed to equilibrate for 30 minutes and the resulting signal (665 nm/620 nm ratio) was obtained using an EnVision fluorometer. Additional binding assays were established between the human proteins PD-1-Ig/PD-L2-His (20 & 5 nM, respectively) and CD80-His/PD-L1-Ig (100 & 10 nM, respectively).
Recombinant Proteins: Human PD-1 (25-167) with a C-terminal human Fc domain of immunoglobulin G (Ig) epitope tag [hPD-1 (25-167)-3S-IG] and human PD-L1 (18-239) with a C-terminal His epitope tag [hPD-L1(18-239)-TVMV-His] were expressed in HEK293T cells and purified sequentially by ProteinA affinity chromatography and size exclusion chromatography. Human PD-L2-His and CD80-His was obtained through commercial sources.
Homogenous Time-Resolved Fluorescence (HTRF) Assays of Binding of Soluble PD-1 to Soluble PD-L1. Soluble PD-1 and soluble PD-L1 refers to proteins with carboxyl-end truncations that remove the transmembrane-spanning regions and are fused to heterologous sequences, specifically the Fc portion of the human immunoglobuling G sequence (Ig) or the hexahistidine epitope tag (His). All binding studies were performed in an HTRF assay buffer consisting of dPBS supplemented with 0.1% (w/v) bovine serum albumin and 0.05% (v/v) Tween-20. For the PD-1-Ig/PD-L1-His binding assay, inhibitors were pre-incubated with PD-L1-His (10 nM final) for 15 m in 4 μl of assay buffer, followed by addition of PD-1-Ig (20 nM final) in 1 μl of assay buffer and further incubation for 15 m. PD-L1 fusion proteins from either human, cynomologous macaques, mouse, or other species were used. HTRF detection was achieved using europium crypate-labeled anti-Ig monoclonal antibody (1 nM final) and allophycocyanin (APC) labeled anti-His monoclonal antibody (20 nM final). Antibodies were diluted in HTRF detection buffer and 5 μl was dispensed on top of binding reaction. The reaction was allowed to equilibrate for 30 minutes and signal (665 nm/620 nm ratio) was obtained using an EnVision fluorometer. Additional binding assays were established between PD-1-Ig/PD-L2-His (20 and 5 nM, respectively), CD80-His/PD-L1-Ig (100 and 10 nM, respectively) and CD80-His/CTLA4-Ig (10 and 5 nM, respectively).
Recombinant Proteins. Carboxyl-truncated human PD-1 (amino acids 25-167) with a C-terminal human Ig epitope tag [hPD-1 (25-167)-3S-IG] and human PD-L1 (amino acids 18-239) with a C-terminal His epitope tag [hPD-L1(19-239)-tobacco vein mottling virus protease cleavage site (TVMV)-His] were expressed in HEK293T cells and purified sequentially by recombinant Protein A affinity chromatography and size exclusion chromatography. Human PD-L2-His (Sino Biologicals), CD80-His (Sino Biologicals), CTLA4-Ig (RnD Systems) were all obtained through commercial sources.
(Time-resolved FRET reads energy transfer from a long-lived donor to a nearby acceptor.)
In the case of `CC(=O)N(Cc1cc(Cl)c(COc2cccc(-c3cccc(COc4cc(OCc5cncc(C#N)c5)c(CN(C(C)=O)[C@@H]5COC(=O)C5)cc4Cl)c3C)c2C)cc1OCc1cncc(C#N)c1)[C@@H]1COC(=O)C1` [Compound 1050], the concentration for half-maximal inhibition (IC50) – broadly, the midpoint of a concentration-inhibition curve – turned out to be 47.3 nM.

Take `Cc1c(COc2cc(OCc3cncc(C#N)c3)c(CNC3CCC(=O)NC3=O)cc2Cl)cccc1-c1cccc(OCC2CCCN(C)C2)c1Cl` (stereo not drawn) [Compound 1015]: the IC50 is 2.4 nM.

`Cc1c(COc2cc(OCc3cncc(C#N)c3)c(CN[C@H]3CCNC3=O)cc2Cl)cccc1-c1cccc(OCC2CCCN(C)C2)c1Cl` (stereo partly drawn) [Compound 1010] came in with an IC50 of 2.3 nM.

`Cc1c(COc2cc(O)c(CN[C@H]3CCOC3=O)cc2Cl)cccc1-c1cccc(OCC2CCCN(C)C2)c1Cl` (stereo partly drawn) [Compound 1031] displayed an IC50 of 39.3 nM.

As for `Cc1c(COc2cc(OCc3cncc(C#N)c3)c(CNC3(C)CC(C)(C)OC3=O)cc2Cl)cccc1-c1cccc(COc2cc(OCc3cncc(C#N)c3)c(CNC3(C)CC(C)(C)OC3=O)cc2Cl)c1C` (stereo not drawn) [Compound 1025], the IC50 is more than 10000 nM.

Turning to `Cc1c(COc2cc(OCc3cncc(C#N)c3)c(CNC3(C)CCOC3=O)cc2Cl)cccc1-c1cccc(OCC2CCCN(C)C2)c1Cl` (stereo not drawn) [Compound 1005], the IC50 was determined as 1.7 nM.

As to `CCN(Cc1cc(Cl)c(OCc2cccc(-c3cccc(COc4cc(OCc5cncc(C#N)c5)c(CN(CC)C5CC(C)OC5=O)cc4Cl)c3C)c2C)cc1OCc1cncc(C#N)c1)C1CC(C)OC1=O` (stereo not drawn) [Compound 1054], the concentration for half-maximal inhibition (IC50) was 2520 nM.

With `Cc1c(COc2cc(OCc3cncc(C#N)c3)c(CNC3(C)CCOC3=O)cc2Cl)cccc1-c1cccc(COc2cc(OCc3cncc(C#N)c3)c(CNC3(C)CCOC3=O)cc2Cl)c1C` (stereo not drawn) [Compound 1016], the IC50 came out at 110 nM.

`COc1cc(OCc2cccc(-c3cccc(OCC4CCCN(C)C4)c3Cl)c2C)c(Cl)cc1CNC1CCOC1=O` (stereo not drawn) [Compound 1032] yielded an IC50 of 7.8 nM.

`Cc1c(COc2cc(OCc3cncc(C#N)c3)c(CN[C@H]3CCCNC3=O)cc2Cl)cccc1-c1cccc(OCC2CCCN(C)C2)c1Cl` (stereo partly drawn) [Compound 1013] returned an IC50 of 4 nM.

For `Cc1c(COc2cc(OCc3cncc(C#N)c3)c(CN(C)C3CC(C)OC3=O)cc2Cl)cccc1-c1cccc(COc2cc(OCc3cncc(C#N)c3)c(CN(C)C3CC(C)OC3=O)cc2Cl)c1C` (stereo not drawn) [Compound 1053], the IC50 is 1470 nM.

In the case of `COc1cc(OCc2cccc(-c3cccc(OCC4CCCN(C)C4)c3Cl)c2C)c(Cl)cc1CNC1(C)CCOC1=O` (stereo not drawn) [Compound 1036], the IC50 amounted to 7.3 nM.

In turn, `COc1cc(OCc2cccc(-c3cccc(OCC4CCCN(C)C4)c3Cl)c2C)c(Cl)cc1CNC1CCCNC1=O` (stereo not drawn) [Compound 1035] yielded an IC50 of 2.1 nM.

`Cc1c(COc2cc(OCc3cncc(C#N)c3)c(CNC3C(=O)OCC3(C)C)cc2Cl)cccc1-c1cccc(OCC2CCCN(C)C2)c1Cl` (stereo not drawn) [Compound 1008] displayed an IC50 of 4.4 nM.

Take `Cc1c(COc2cc3c(cc2Cl)CN(C2CCOC2=O)CC(O)CO3)cccc1-c1cccc(OCC2CCCN(C)C2)c1Cl` (stereo not drawn) [Compound 1049]: the IC50 is 11.5 nM.
